The results in this text go back to patent US20130116263A1, “PAK INHIBITORS FOR THE TREATMENT OF CELL PROLIFERATIVE DISORDERS” (AFRAXIS, INC., priority 2011, published 2013).

Common to all, as to format: biochemical
One experiment deals with PAK3 (Homo sapiens, UniProt O75914). Put plainly: In vitro PAK inhibition assay (Z'-LYTE, SelectScreen), PAK3. To be noted: read-out: PAK3 IC50. In short, it runs like this:
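Z'-LYTE FRET format: PAK3 with Ser/Thr 20 peptide in 50 mM HEPES pH 7.5, 0.01% BRIJ-35, 10 mM MgCl2, 1 mM EGTA, 1% DMSO final. Kinase reaction 60 min at room temperature, then 60 min development and fluorescence read.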

A further experiment has as its target PAK2 (PAK65) (Homo sapiens, UniProt Q13177). Put plainly: In vitro PAK inhibition assay (Z'-LYTE, SelectScreen), PAK2. To be noted: read-out: PAK2 IC50. In short, it runs like this:
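Z'-LYTE FRET readout using Ser/Thr 20 peptide (2 μM) with 0.29–6 ng PAK2 in 50 mM HEPES pH 7.5, 0.01% BRIJ-35, 10 mM MgCl2, 1 mM EGTA, 1% DMSO. Reaction and development each ran 60 min at room temperature.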

In another experiment the target is PAK4 (Homo sapiens, UniProt O96013). Nature of the experiment: In vitro PAK inhibition assay (Z'-LYTE, SelectScreen), PAK4. In short, it runs like this:
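Z'-LYTE FRET assay with 0.1-0.75 ng PAK-4 and 2 μM Ser/Thr 20 peptide in 50 mM HEPES pH 7.5, 10 mM MgCl2, 1 mM EGTA, 0.01% BRIJ-35, 1% DMSO; ATP near apparent Km. 1 h kinase reaction at room temperature, then 1 h development; IC50 from 10-point 3-fold titrations fitted to a sigmoidal dose-response.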

For the next experiment, the target named is PAK1 (Homo sapiens, UniProt Q13153). Nature of the experiment: In vitro PAK inhibition assay (Z'-LYTE, SelectScreen), PAK1. To be noted: read-out: PAK1 IC50. The procedure, abridged:
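The PAK1 reaction on Ser/Thr 19 peptide runs 60 min at room temperature in 50 mM HEPES pH 7.5 with 10 mM MgCl2, 1 mM EGTA, 0.01% BRIJ-35; Z'-LYTE fluorescence read after 60 min development.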

PAK4, sequence (O96013 whole entry): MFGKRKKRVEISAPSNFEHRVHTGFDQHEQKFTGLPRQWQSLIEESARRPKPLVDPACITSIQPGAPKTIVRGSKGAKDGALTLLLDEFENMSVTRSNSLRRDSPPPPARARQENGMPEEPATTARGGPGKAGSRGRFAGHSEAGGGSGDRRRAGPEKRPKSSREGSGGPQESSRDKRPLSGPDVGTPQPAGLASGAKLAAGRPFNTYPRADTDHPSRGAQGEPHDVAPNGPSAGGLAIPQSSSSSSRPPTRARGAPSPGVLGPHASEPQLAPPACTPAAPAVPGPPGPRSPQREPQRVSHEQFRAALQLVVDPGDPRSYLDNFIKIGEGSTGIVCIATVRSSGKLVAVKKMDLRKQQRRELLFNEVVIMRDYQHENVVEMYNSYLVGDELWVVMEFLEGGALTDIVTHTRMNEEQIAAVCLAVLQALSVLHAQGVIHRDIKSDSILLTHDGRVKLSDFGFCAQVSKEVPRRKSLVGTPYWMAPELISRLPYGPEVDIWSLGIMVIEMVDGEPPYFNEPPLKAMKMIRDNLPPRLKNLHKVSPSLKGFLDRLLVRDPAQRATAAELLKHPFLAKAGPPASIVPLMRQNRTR
PAK1, sequence (Q13153 whole entry): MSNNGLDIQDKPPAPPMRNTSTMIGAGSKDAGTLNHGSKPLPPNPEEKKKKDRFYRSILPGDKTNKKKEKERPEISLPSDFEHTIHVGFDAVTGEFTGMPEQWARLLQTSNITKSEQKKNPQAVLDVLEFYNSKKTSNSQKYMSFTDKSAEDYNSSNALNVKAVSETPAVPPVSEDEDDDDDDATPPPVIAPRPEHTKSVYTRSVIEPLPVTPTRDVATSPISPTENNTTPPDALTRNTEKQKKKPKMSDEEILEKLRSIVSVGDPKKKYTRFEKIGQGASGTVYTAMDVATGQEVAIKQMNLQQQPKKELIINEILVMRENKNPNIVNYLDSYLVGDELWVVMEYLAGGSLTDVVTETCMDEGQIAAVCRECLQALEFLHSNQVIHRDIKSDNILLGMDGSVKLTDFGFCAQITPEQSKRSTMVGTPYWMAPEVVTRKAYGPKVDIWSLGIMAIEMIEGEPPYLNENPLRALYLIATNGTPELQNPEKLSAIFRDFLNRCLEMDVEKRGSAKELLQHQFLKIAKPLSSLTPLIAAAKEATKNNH
PAK3, sequence (O75914 1-544 isoform O75914-2): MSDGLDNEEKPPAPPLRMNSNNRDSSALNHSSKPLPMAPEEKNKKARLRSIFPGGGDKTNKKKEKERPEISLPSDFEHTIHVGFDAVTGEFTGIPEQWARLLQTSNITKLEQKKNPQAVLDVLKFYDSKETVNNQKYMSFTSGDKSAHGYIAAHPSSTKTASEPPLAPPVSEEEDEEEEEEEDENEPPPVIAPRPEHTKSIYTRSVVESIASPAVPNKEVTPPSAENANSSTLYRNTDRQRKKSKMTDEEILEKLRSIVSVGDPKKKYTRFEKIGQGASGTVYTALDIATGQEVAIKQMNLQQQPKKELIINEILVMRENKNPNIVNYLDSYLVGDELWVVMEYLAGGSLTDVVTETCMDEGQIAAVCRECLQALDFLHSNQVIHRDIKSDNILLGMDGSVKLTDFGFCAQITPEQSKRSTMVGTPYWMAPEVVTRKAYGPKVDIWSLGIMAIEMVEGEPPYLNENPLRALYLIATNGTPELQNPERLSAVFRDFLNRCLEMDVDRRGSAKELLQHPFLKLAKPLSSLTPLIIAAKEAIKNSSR
PAK2 (PAK65), sequence (Q13177 whole entry): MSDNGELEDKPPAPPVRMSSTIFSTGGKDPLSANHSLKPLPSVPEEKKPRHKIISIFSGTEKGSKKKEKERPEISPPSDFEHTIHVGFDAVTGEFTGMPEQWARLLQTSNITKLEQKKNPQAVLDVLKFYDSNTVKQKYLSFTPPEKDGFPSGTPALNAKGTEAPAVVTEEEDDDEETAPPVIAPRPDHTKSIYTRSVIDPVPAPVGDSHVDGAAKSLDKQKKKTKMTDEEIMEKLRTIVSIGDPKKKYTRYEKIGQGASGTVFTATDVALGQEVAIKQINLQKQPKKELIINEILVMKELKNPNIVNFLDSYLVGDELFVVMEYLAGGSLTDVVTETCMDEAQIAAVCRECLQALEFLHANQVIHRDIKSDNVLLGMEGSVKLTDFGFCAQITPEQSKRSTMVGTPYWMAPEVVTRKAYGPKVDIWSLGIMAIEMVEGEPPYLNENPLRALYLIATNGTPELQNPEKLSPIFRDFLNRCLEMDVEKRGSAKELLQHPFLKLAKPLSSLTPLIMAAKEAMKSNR

`CCn1c(=O)c(-c2ccc(-c3cccnc3C)cc2Cl)cc2cnc(NC3CCOCC3)nc21` [Example 45]: the IC50 on PAK3 was 500 to 5000 nM; on PAK2 (PAK65), 500 to 5000 nM; against PAK4, greater than 5000 nM; at PAK1 it was 50 to 500 nM.

In the case of `CCn1c(=O)c(-c2ccc(-c3ccc(C)nc3)cc2Cl)cc2cnc(N[C@@H]3CCOC3)nc21` [Example 56], the IC50 on PAK3 was greater than 5000 nM; at PAK2 (PAK65), 50 to 500 nM; on PAK4 it was greater than 5000 nM; at PAK1, 500 to 5000 nM.

As to `Cc1cncc(-c2ccc(-c3cc4cnc(N[C@H]5CCOC5)nc4n(C4CCNCC4)c3=O)c(Cl)c2)n1` [Example 106], the IC50 on PAK3 was 50 to 500 nM; on PAK2 (PAK65), 50 to 500 nM; at PAK4, greater than 5000 nM; at PAK1, 50 to 500 nM.

As to `Cc1cncc(-c2ccc(-c3cc4cnc(N[C@@H]5CCOC5)nc4n(CCN)c3=O)c(Cl)c2)n1` [Example 99], the 50% inhibitory concentration (IC50) on PAK3 is 50 to 500 nM; at PAK2 (PAK65), less than 50 nM; at PAK4, greater than 5000 nM; at PAK1, less than 50 nM.

In the case of `CCN(CC)CCn1c(=O)c(-c2ccc(-c3cncc(C)n3)cc2Cl)cc2cnc(N[C@@H]3CCOC3)nc21` [Example 96], the concentration for half-maximal inhibition (IC50) at PAK3 was 500 to 5000 nM; on PAK2 (PAK65), 50 to 500 nM; against PAK4, greater than 5000 nM; at PAK1 it was 50 to 500 nM.

In the case of `CCn1c(=O)c(-c2ccc(-c3nccnc3C)cc2Cl)cc2cnc(NC3CCSCC3)nc21` [Example 18], the IC50 at PAK3 was 50 to 500 nM; on PAK2 (PAK65), 50 to 500 nM; at PAK4 it was greater than 5000 nM; at PAK1, 50 to 500 nM.

`Cc1nccnc1-c1ccc(-c2cc3cnc(NC4CC4)nc3n([C@H]3CC[C@H](N)CC3)c2=O)c(Cl)c1` [Example 119]: the IC50 on PAK3 is less than 50 nM; on PAK2 (PAK65), less than 50 nM; against PAK4, greater than 5000 nM; on PAK1, less than 50 nM.

With `CCn1c(=O)c(-c2ccc(-c3nccnc3C)cc2Cl)cc2cnc(NC3CCOC(C)C3)nc21` (stereo not shown) [Example 32], the concentration for half-maximal inhibition (IC50) on PAK3 is 50 to 500 nM; at PAK2 (PAK65) it was less than 50 nM; against PAK4, greater than 5000 nM; on PAK1, 50 to 500 nM.

`CCn1c(=O)c(-c2ccc(-c3cnccc3C)cc2Cl)cc2cnc(N[C@@H]3CCOC3)nc21` [Example 49]: the IC50 on PAK3 was 500 to 5000 nM; at PAK2 (PAK65) it was 500 to 5000 nM; at PAK4, greater than 5000 nM; at PAK1, 50 to 500 nM.

Regarding `CCn1c(=O)c(-c2ccc(-c3nccnc3C)cc2Cl)cc2cnc(N[C@@H]3CCOC(C)(C)C3)nc21` (stereo in doubt) [Example 76], the IC50 on PAK3 is 50 to 500 nM; at PAK2 (PAK65), less than 50 nM; at PAK4 it was greater than 5000 nM; on PAK1, less than 50 nM.

Turning to `CCn1c(=O)c(-c2ccc(-c3nccnc3C)cc2Cl)cc2cnc(NC3CCN(C)C3)nc21` (stereo not shown) [Example 78, 6-(2-chloro-4-(3-methylpyrazin-2-yl)phenyl)-8-ethyl-2-((1-methylpyrrolidin-3-yl)amino)pyrido[2,3-d]pyrimidin-7(8H)-one], the IC50 on PAK3 is 500 to 5000 nM; at PAK2 (PAK65) it was 50 to 500 nM; against PAK4, greater than 5000 nM; on PAK1, 50 to 500 nM.

With `CCn1c(=O)c(-c2ccc(-c3cccnc3OC)cc2Cl)cc2cnc(NC3CCOCC3)nc21` [Example 52], the IC50 was greater than 5000 nM at PAK3, greater than 5000 nM at PAK2 (PAK65), greater than 5000 nM at PAK4 and 500 to 5000 nM on PAK1.

As to `Cc1cncc(-c2ccc(-c3cc4cnc(NC5CCOCC5)nc4n(Cc4ccccc4)c3=O)c(Cl)c2)n1` [Example 34], the 50% inhibitory concentration (IC50) at PAK3 was 50 to 500 nM; at PAK2 (PAK65), less than 50 nM; against PAK4 it was greater than 5000 nM; at PAK1, 50 to 500 nM.

`CCn1c(=O)c(-c2ccc(-c3noc(C)n3)cc2Cl)cc2cnc(NCCC3CCN(C)CC3)nc21` [Example 93]: the IC50 at PAK3 is 50 to 500 nM; at PAK2 (PAK65), less than 50 nM; on PAK4 it was greater than 5000 nM; at PAK1, less than 50 nM.

With `CCn1c(=O)c(-c2ccc(-c3nccnc3C)cc2Cl)cc2cnc(NCCN(C)C)nc21` [Example 13], the IC50 was 500 to 5000 nM on PAK3, 500 to 5000 nM on PAK2 (PAK65), greater than 5000 nM on PAK4 and 500 to 5000 nM on PAK1.

For the molecule `Cc1nccnc1-c1ccc(-c2cc3cnc(N[C@H]4CCOC4)nc3n(Cc3ccncc3)c2=O)c(Cl)c1` [Example 126], the IC50 at PAK3 was 50 to 500 nM; at PAK2 (PAK65), 50 to 500 nM; on PAK4 it was greater than 5000 nM; on PAK1, 50 to 500 nM.

For `CCn1c(=O)c(-c2ccc(-c3nccnc3C)cc2Cl)cc2cnc(N[C@H]3CC[C@H](N)CC3)nc21` [Example 90, 2-(((trans-1,4)-4-aminocyclohexyl)amino)-6-(2-chloro-4-(3-methylpyrazin-2-yl)phenyl)-8-ethylpyrido[2,3-d]pyrimidin-7(8H)-one], the IC50 was 50 to 500 nM at PAK3, less than 50 nM at PAK2 (PAK65), greater than 5000 nM at PAK4 and 50 to 500 nM at PAK1.

In the case of `Cc1cncc(-c2ccc(-c3cc4cnc(N[C@@H]5CCOC5)nc4n(CCN4CCCC4)c3=O)c(Cl)c2)n1` [Example 104], the IC50 on PAK3 was 500 to 5000 nM; on PAK2 (PAK65), 50 to 500 nM; against PAK4, greater than 5000 nM; at PAK1, 50 to 500 nM.

For `Cc1cncc(-c2ccc(-c3cc4cnc(N[C@@H]5CCOC5)nc4n(C4CCN(C)CC4)c3=O)c(Cl)c2)n1` [Example 107], the half-inhibitory concentration (IC50) is 500 to 5000 nM on PAK3, 50 to 500 nM on PAK2 (PAK65), greater than 5000 nM against PAK4 and 50 to 500 nM on PAK1.

As for `CCn1c(=O)c(-c2ccc(-c3cncc(C)n3)cc2Cl)cc2cnc(NC3CCOC3)nc21` (stereo not shown) [Example 29], the IC50 on PAK3 was 50 to 500 nM; on PAK2 (PAK65) it was less than 50 nM; against PAK4 it was greater than 5000 nM; at PAK1, 50 to 500 nM.

As for `Cc1cncc(-c2ccc(-c3cc4cnc(N[C@H]5CCOC5)nc4n(CCCN(C)C)c3=O)c(Cl)c2)n1` [Example 102], the IC50 at PAK3 is 50 to 500 nM; at PAK2 (PAK65), less than 50 nM; at PAK4 it was greater than 5000 nM; at PAK1, less than 50 nM.

With `CCn1c(=O)c(-c2ccc(-c3nccnc3C)cc2Cl)cc2cnc(NC3CCNC(=O)C3)nc21` (stereo not shown) [Example 33], the IC50 was 50 to 500 nM at PAK3, less than 50 nM on PAK2 (PAK65), greater than 5000 nM on PAK4 and 50 to 500 nM at PAK1.

Take `CCn1c(=O)c(-c2ccc(-c3nccnc3C)cc2Cl)cc2cnc(NC3CC[S+]([O-])CC3)nc21` (stereo not shown) [Example 74]: the IC50 at PAK3 is 500 to 5000 nM; on PAK2 (PAK65), 50 to 500 nM; against PAK4 it was greater than 5000 nM; at PAK1 it was 50 to 500 nM.

As to `CCn1c(=O)c(-c2ccc(-c3cncc(C)n3)cc2Cl)cc2cnc(N[C@H]3CC[C@H](CN(C)C)CC3)nc21` [Example 84, 6-(2-chloro-4-(6-methylpyrazin-2-yl)phenyl)-2-((trans-1,4)-4-((dimethylamino)methyl)cyclohexylamino)-8-ethylpyrido[2,3-d]pyrimidin-7(8H)-one], the IC50 on PAK3 is less than 50 nM; at PAK2 (PAK65) it was less than 50 nM; against PAK4 it was greater than 5000 nM; at PAK1, less than 50 nM.

As to `CCn1c(=O)c(-c2ccc(-c3cncc(C)n3)cc2Cl)cc2cnc(NCCCC3CCN(C)CC3)nc21` [Example 68], the IC50 at PAK3 is 50 to 500 nM; at PAK2 (PAK65), 50 to 500 nM; at PAK4 it was greater than 5000 nM; at PAK1, 50 to 500 nM.

Broadly, the IC50 is the concentration at which inhibition is half-maximal.
